According to the NIST ThermoML archive (doi:10.1021/acs.jced.7b00466):
Several values for one entry are separate records, joined by “and”; a condition that tells them apart may be missing. Equal values may be shown once. ± gives the expanded uncertainty stated by the source.

Assay: an = ratio of the nth substance listed
Conditions: for viscosity / speed of sound / mass density: 102 kPa, Liquid; for viscosity: Concentric cylinders viscometry; for speed of sound: Frequency=3 MHz, Sing-around technique in a fixed-path interferometer; for mass density: Vibrating tube method; for surface tension liquid-gas: 294.5 K, Pendant drop shape

CCCCC1CCCCC1 [butylcyclohexane] + CCCCCCCCCCCC
Conditions | mass density | speed of sound | viscosity
293.15 K, a2 = 0.3332 | 783.9 ± 1.5 kg/m3 | 1317.5 ± 1.1 m/s and 1317.3 ± 1.1 m/s | 1.34 ± 0.01 mPa·s
293.15 K, a2 = 1 | 770.6 ± 1.5 kg/m3 | 1309 ± 1.1 m/s and 1308.8 ± 1.1 m/s | 1.38 ± 0.01 mPa·s
293.15 K, a2 = 2.995 | 759 ± 1.5 kg/m3 | 1302.4 ± 1.1 m/s | 1.44 ± 0.01 mPa·s
293.15 K, a2 = 3.001 | 759 ± 1.5 kg/m3 | 1302.6 ± 1.1 m/s | 1.42 ± 0.01 mPa·s
303.15 K, a2 = 0.3332 | 776.5 ± 1.5 kg/m3 | 1278.1 ± 1.1 m/s and 1278.4 ± 1.1 m/s | 1.13 ± 0.01 mPa·s
303.15 K, a2 = 1 | 763.3 ± 1.5 kg/m3 | 1270.4 ± 1.1 m/s and 1270.1 ± 1.1 m/s | 1.17 ± 0.01 mPa·s
303.15 K, a2 = 2.995 | 751.7 ± 1.5 kg/m3 | 1264 ± 1.1 m/s | 1.22 ± 0.01 mPa·s
303.15 K, a2 = 3.001 | 751.7 ± 1.5 kg/m3 | 1264.3 ± 1.1 m/s | 1.2 ± 0.01 mPa·s
313.15 K, a2 = 0.3332 | 769.1 ± 1.5 kg/m3 | 1239.7 ± 1.1 m/s and 1239.9 ± 1.1 m/s | 0.972 ± 0.012 mPa·s and 0.974 ± 0.012 mPa·s
313.15 K, a2 = 1 | 755.9 ± 1.5 kg/m3 | 1232.3 ± 1.1 m/s and 1232 ± 1.1 m/s | 1.01 ± 0.01 mPa·s and 1 ± 0.01 mPa·s
313.15 K, a2 = 2.995 | 744.4 ± 1.5 kg/m3 | 1226.2 ± 1.1 m/s | 1.04 ± 0.01 mPa·s
313.15 K, a2 = 3.001 | 744.4 ± 1.5 kg/m3 | 1226.5 ± 1.1 m/s | 1.02 ± 0.01 mPa·s
323.15 K, a2 = 0.3332 | 761.6 ± 1.5 kg/m3 | 1201.8 ± 1.1 m/s and 1202 ± 1.1 m/s | 0.845 ± 0.012 mPa·s and 0.846 ± 0.012 mPa·s
323.15 K, a2 = 1 | 748.5 ± 1.5 kg/m3 | 1194.8 ± 1.1 m/s and 1194.6 ± 1.1 m/s | 0.88 ± 0.012 mPa·s and 0.865 ± 0.012 mPa·s
323.15 K, a2 = 2.995 | 737.1 ± 1.5 kg/m3 | 1189 ± 1.1 m/s | 0.896 ± 0.012 mPa·s
323.15 K, a2 = 3.001 | 737.1 ± 1.5 kg/m3 | 1189.3 ± 1.1 m/s | 0.883 ± 0.012 mPa·s
333.15 K, a2 = 0.3332 | 754.1 ± 1.5 kg/m3 | 1164.8 ± 1.1 m/s and 1164.7 ± 1.1 m/s | 0.743 ± 0.012 mPa·s and 0.741 ± 0.012 mPa·s
333.15 K, a2 = 1 | 741.1 ± 1.5 kg/m3 | 1158.1 ± 1.1 m/s and 1157.9 ± 1.1 m/s | 0.774 ± 0.012 mPa·s and 0.757 ± 0.012 mPa·s
333.15 K, a2 = 2.995 | 729.7 ± 1.5 kg/m3 | 1152.5 ± 1.1 m/s | 0.788 ± 0.012 mPa·s
333.15 K, a2 = 3.001 | 729.7 ± 1.5 kg/m3 | 1152.9 ± 1.1 m/s | 0.77 ± 0.012 mPa·s
343.15 K, a2 = 0.3332 | 746.5 ± 4.3 kg/m3 | – | 0.656 ± 0.011 mPa·s
343.15 K, a2 = 1 | 733.6 ± 4.3 kg/m3 and 733.7 ± 4.3 kg/m3 | – | 0.686 ± 0.012 mPa·s and 0.668 ± 0.012 mPa·s
343.15 K, a2 = 2.995 | 722.5 ± 4.3 kg/m3 | – | 0.699 ± 0.012 mPa·s
343.15 K, a2 = 3.001 | 722.2 ± 4.3 kg/m3 | – | 0.678 ± 0.012 mPa·s

Conditions | surface tension liquid-gas [mN/m]
a2 = 0.3332 | 26.1 ± 0.3
a2 = 0.3335 | 26.1 ± 0.3
a2 = 0.9998 | 25.8 ± 0.4
a2 = 1 | 25.6 ± 0.3
a2 = 2.997 | 25.4 ± 0.3
a2 = 3.001 | 25.3 ± 0.3
